In brackets after ≈: the same amount, converted by molar mass.
Legend:
HeLa cells [1] = assay: Cell cycle analysis (PI staining, flow cytometry); format: cell-based, human; conditions: 24 h, concentration corresponding to IC50
Protocol: The MTT and LDH release assays provided evidence that aziridine phosphine oxides 5 and 7 inhibit cancer cell viability at concentrations equal to their respective IC50 values through antiproliferative mechanisms rather than by inducing cell death. It is expected that such observations will be reflected in cell cycle disturbances. To investigate which phase of the cell cycle is arrested, a cell cycle analysis was performed using propidium iodide (PI) staining. PI binds in proportion to the amount of DNA present in the cell. As a result of DNA replication, the cells in the S phase of the cell cycle contain more DNA than cells in the G1 phase. […] Before the exact analysis of the obtained results, we utilized a pre-gate to define the counted cells to be analyzed for cell cycle distribution. […] These findings confirmed the antiproliferative activity of these compounds.
Figure 4 Effects of 5 and 7 on cell cycle phase distribution in HeLa cells compared to untreated control. […] Data are expressed as mean ± SD of two independent experiments. Statistical significance in comparison with the untreated control, measured by two-way analysis of variance (ANOVA) followed by Bonferroni multiple comparison test, is indicated by asterisks: (*) p < 0.05, (**) p < 0.01, (***) p < 0.001.
Cell cycle analysis: The distribution of cell cycle phases was measured using flow cytometry and propidium iodide (PI) staining. The PI intercalates into the major groove of double-stranded DNA, producing a highly fluorescent signal when excited at 488 nm, with a broad emission centered around 600 nm. PI binds in proportion to the amount of DNA present in the cell. HeLa cells were seeded on 60 mm dishes at a density of 5 × 10^5 in 3 mL of Dulbecco’s Modified Eagle’s Medium F12 (DMEM-F12, Biowest, Nuaillé, France) supplemented with 10% fetal bovine serum (FBS, Biowest), 100 units/mL of penicillin G and 100 μg/mL of streptomycin (Biowest, Nuaillé, France) and incubated for 24 h at 37 °C and 5% CO2. Then, compounds 5 or 7 were added at a concentration corresponding to their IC50 values and the plate was incubated for the next 24 h. Untreated cells were used as a positive control. The cells were then harvested by trypsinization, suspended in culture medium (1 mL), centrifuged at 3600 rpm for 10 min, and washed twice with dPBS (Dulbecco’s phosphate-buffered saline, Cytogen–Polska Sp. z o.o, Zgierz, Poland). The cell sediment was resuspended in dPBS (600 μL) and fixed in 70% ice-cold ethanol. After storing the cells at 4 °C for 24 h, they were stained in PI staining solution (600 µL, 50 μg/mL of PI, and 100 μg/mL of RNAse A in dPBS) and incubated for 30 min at 37 °C in darkness. The cell cycle distribution was analyzed by flow cytometry using an LSRII (Becton Dickinson, Franklin Lakes, NJ, USA) instrument at 488 nm excitation and 535/617 emission wavelengths, and the cell cycle phase distribution from two independent experiments (10,000 cell counts/sample) was determined with the FlowJo 7.6.1 software (FlowJo, LLC, Ashland, OR, USA) using a built-in cell cycle analysis module (Watson pragmatic algorithm).

HeLa cells [2] = assay: cells; format: cell-based, human; conditions: for IC50: Homo sapiens, 24 h, read-out: IC50 (µM) HeLa; for selectivity index (SI) HeLa: efficacy against HeLa versus normal fibroblasts L929, SI > 1.0 = greater efficacy against cancer cells
Protocol: (§1) Considering our previous research and the literature reports on the antitumor activity of aziridine derivatives, aziridine phosphines (1–4) and aziridine phosphine oxides (5–9) were tested to investigate their potential anticancer activity. The in vitro effects on cell viability were assessed using the 3-(4,5-dimethylthiazol-2-yl)-2,5-diphenyltetrazolium bromide (MTT) assay on non-tumorigenic murine fibroblasts (L929) as well as two cancer cell lines: human cervical epithelioid carcinoma (HeLa) cells and endometrial adenocarcinoma (Ishikawa) cells.
(§2) Cell viability inhibition: The in vitro effects on cell viability were determined using the 3-(4,5-dimethylthiazol-2-yl)-2,5-diphenyltetrazolium bromide (MTT) assay on non-tumorigenic murine fibroblasts L929 (ATTC®—CCL-1) as well as two cancer cell lines: human cervical epithelioid carcinoma HeLa cells (ATTC®—CCL-2™) and endometrial adenocarcinoma Ishikawa cells (ECACC 99040201). Cells were cultured on 96-well microplates at a density of 1 × 10^4 cells/well following the international in Dulbecco’s Modified Eagle’s Medium (DMEM, Biowest) supplemented with 10% fetal bovine serum (FBS, Biowest, Nuaillé, France), 100 U/mL of penicillin, and 100 μg/mL of streptomycin (Biowest, Nuaillé, France). After overnight incubation at 37 °C and 5% CO2, the growth medium was removed and 100 μL of fresh media with two-fold dilutions of the tested compounds at concentrations of 3.125–100 μM were added. […] Untreated cells in medium were used as a positive control, while a clear culture medium served as a negative control.

Ishikawa cells = assay: cells; format: cell-based, human; conditions: for IC50: Homo sapiens, Ishikawa, 24 h, read-out: IC50 (µM) Ishikawa; for selectivity index (SI) Ishikawa: efficacy against Ishikawa versus normal fibroblasts L929, SI > 1.0 = greater efficacy against cancer cells
Protocol: as §1, §2

[3] = test system: Staphylococcus aureus ATCC 6538; assay: MIC, two-fold microdilution (EUCAST), S. aureus reference strain; format: cell-based; conditions: Staphylococcus aureus, ATCC6538, 18 h, read-out: MIC (µM) Staphylococcus aureus ATCC 6538
Excerpt: A panel of reference bacteria, including Escherichia coli NCTC 8196, Staphylococcus aureus ATCC 6538, Klebsiella pneumoniae ATCC 13883, and Pseudomonas aeruginosa NCTC 6749, was used to assess the antibacterial activity of the nine tested aziridine phosphines (1–4) and aziridine phosphine oxides (5–9). The two-fold microdilution method, following EUCAST guidelines, was used to determine a minimal inhibitory concentration (MIC) of each compound, as presented in Table S1.
Antibacterial activity: The in vitro antibacterial activity of nine tested aziridine phosphines (1–4) and aziridine phosphine oxides (5–9) was evaluated against reference bacterial strains (E. coli NCTC 8196, S. aureus ATCC 6538, K. pneumoniae ATCC 13883, P. aeruginosa NCTC 6749) and 12 S. aureus clinical isolates, including two methicillin-resistant isolates (MRSA, D15 and D17) obtained from infected patients hospitalized at the Oncological Hospital in Lodz (Poland). All strains were kept frozen at −80 °C in Tryptic Soy Broth with 15% glycerol. The minimal inhibitory concentration (MIC) is defined as the lowest concentration of the compound that prevents visible growth of bacteria using the microdilution method followed the EUCAST guidelines. Each compound was added to 96-well microplates in two-fold dilutions at concentrations from 3.125 to 100 μM in Mueller–Hinton broth. […] Bacterial culture was added into wells at a density of 5 × 10^5 CFU mL^−1, and plates were incubated at 37 °C for 18 h. As a positive control, an untreated bacterial culture was used, and a clear culture medium served as a negative control. The optical density at OD600 was measured using the SpectraMax i3 Multi-Mode Platform (Molecular Devices, San Jose, CA, USA). Ciprofloxacin hydrochloride (CIP, Sigma-Aldrich, Darmstadt, Germany) was used as a reference antimicrobial drug.

SMILES | cell cycle arrest (phase distribution) (HeLa cells [1]) | number of cells in the sub-G1 phase (indicative of apoptosis) (HeLa cells [1]) | stage of S-phase arrest (histograms of cell cycle distribution) (HeLa cells [1]) | IC50 (HeLa cells [2]) [µM] | selectivity index (SI) HeLa (HeLa cells [2]) | IC50 (Ishikawa cells) [µM] | selectivity index (SI) Ishikawa (Ishikawa cells) | MIC [3] [µM]
CC(C)C[C@H]1CN1c1ccccc1P(=O)(c1ccccc1)c1ccccc1 [Compound 7] | significant cell arrest in the S phase | significantly increased | more effective in the late S phase | 7.1 ± 2.6 | 2.5 | 10.5 ± 3.1 | 1.7 | 50 (≈ 18.8 µg/mL)
CC(C)[C@@H]1CN1c1ccccc1P(=O)(c1ccccc1)c1ccccc1 [Compound 5] | significant cell arrest in the S phase | significantly increased | cell arrest mainly in the early stages of the S phase | 6.4 ± 2.1 | 1.7 | 4.6 ± 2.3 | 2.3 | 50 (≈ 18.1 µg/mL)

From paper PMC11012799 (Molecules, 2024)
